US10702506B2, “Small molecule inhibitors of pendrin ion exchange and pharmaceutical compositions” (THE REGENTS OF THE UNIVERSITY OF CALIFORNIA, priority 2016, dated 2020)

Columns and labels:
[1] = test system: CaCC; experiment: Short-circuit current (Isc) analysis in IL-13-treated HBE cells, ATP response; type: cell-based, human; settings: 25 μM, 30 min pre-treatment
Experimental: Further experiments were done with PDSinh-A01 because of its greater inhibition potency for Cl^−/HCO3^− exchange than PDSinh-C01. To investigate PDSinh-A01 specificity, the major ion transport pathways in HBE cells were studied by short-circuit current (Isc) analysis. Cells were treated with IL-13 to increase Ca^2+-activated Cl^− conductance (CaCC) activity. For Isc measurements, cells were sequentially treated with amiloride to inhibit the epithelial sodium channel (ENaC), forskolin to activate the cystic fibrosis transmembrane conductance regulator (CFTR), CFTRinh-172 to inhibit CFTR, and ATP to activate CaCC. In the absence of PDSinh-A01, ion channel modulators produced the anticipated changes in Isc (FIG. 4A).
IL-13-treated HBE cells were cultured on Snapwell clear permeable supports (12 mm diameter, 0.4 μm polyester membrane, Costar, Corning, Corning, N.Y.). Short-circuit current was measured using symmetrical HCO3^−-buffered solutions (in mM: 120 NaCl, 5 KCl, 1 MgCl2, 1 CaCl2, 5 Hepes, 25 NaHCO3; pH 7.4) as described, with ion transport modulators added to both apical and basolateral bathing solutions. Cells were equilibrated with 95% O2/5% CO2 and maintained at 37° C. during data acquisition. Statistical analysis was by Student's t-test.

[2] = test system: chronically furosemide-treated mice; experiment: Chronic furosemide treatment model in mice; type: in vivo; settings: 10 mg/kg after 8 days furosemide 20 mg/kg twice a day, 3 h urine
Experimental: Because chronic loop diuretic treatment upregulates renal pendrin expression, which might potentiate the diuretic efficacy of pendrin inhibition, the action of PDSinh-C01 in a chronic furosemide treatment model.
In chronic studies, mice were injected with 20 mg/kg furosemide (ip) twice a day for 8 days and then administered PDSinh-C01 (10 mg/kg) or vehicle at the time of the final furosemide dose. Urine was collected for 3 h as described above.
After 8 days of furosemide treatment, PDSinh-C01 further potentiated the furosemide effect.

| SMILES | effect on CaCC activity (Isc response) [1] | increase in urine volume [2] |
| --- | --- | --- |
| Cn1nc(COc2cccc(F)c2)c2c1CCN(C(=O)Nc1ccc(Cl)cc1)C2 [PDSinh-A01] | did not affect the activity | – |
| Cc1n[nH]c(-c2cc(S(=O)(=O)NC3CCCc4ccccc43)c(C)s2)c1C (centres unmarked) [PDSinh-C01] | – | ~60% |
